Results on 16 compounds are retold here after PubChem BioAssay (NCI).

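Interpolation was linear, between the two tested concentrations surrounding the appropriate level; five concentrations were tested over 48 hours in 96-well plates. TGI is the concentration that stops growth completely.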

Among the test systems are UO-31 renal; DMS 273 small cell lung; M19-MEL melanoma; HCC-2998 colon; XF 498 CNS; HOP-18 NSCLC; SNB-78 CNS; DMS 114 small cell lung; KM12 colon; HT29 colon; DLD-1 colon; LXFL 529 NSCLC; KM20L2 colon; RXF-631 renal; HS 578T breast.
Common to all, as to experiment: NCI-60 cell line screen, 48 h

In the case of `Clc1ccc(-c2c(C3=NCCN3)nnn2-c2ccc(Cl)cc2)cc1`, the TGI in the assay on UO-31 renal was 64.5 µM; in the assay with DMS 273 small cell lung it was greater than 100 µM; with M19-MEL melanoma, 30.5 µM; with HCC-2998 colon, 33.6 µM; in the assay with XF 498 CNS, 29.5 µM; with HOP-18 NSCLC, greater than 100 µM. Moreover, the TGI with SNB-78 CNS was 61.7 µM; in the assay on DMS 114 small cell lung, 31.5 µM; in the assay with KM12 colon it was 56.3 µM; with HT29 colon, 36.2 µM; in the assay on DLD-1 colon, greater than 100 µM; with LXFL 529 NSCLC it was 95.4 µM. Besides, in the assay on KM20L2 colon, the TGI was determined as 32.7 µM.
Regarding `COC(=O)C(=C/c1ccc(OC)cc1)/C(C(=O)O)=C(/C)c1ccccc1`, the TGI with UO-31 renal, in the assay with DMS 273 small cell lung, with M19-MEL melanoma, in the assay with HCC-2998 colon, in the assay on XF 498 CNS and with HOP-18 NSCLC was greater than 100 µM each time. The TGI in the assay on SNB-78 CNS, with KM12 colon, in the assay on HT29 colon, in the assay on DLD-1 colon, with LXFL 529 NSCLC and in the assay with KM20L2 colon was greater than 100 µM in each case.
`COc1ccc(C(=O)C(CO)Oc2ccccc2OC)cc1OC` (stereo unspecified): the TGI with UO-31 renal, in the assay with DMS 273 small cell lung, in the assay with M19-MEL melanoma, with HCC-2998 colon, in the assay with XF 498 CNS and in the assay with SNB-78 CNS was greater than 100 µM throughout. The TGI in the assay on DMS 114 small cell lung, in the assay with KM12 colon, with HT29 colon, with RXF-631 renal, in the assay on DLD-1 colon and in the assay with LXFL 529 NSCLC was greater than 100 µM throughout. In addition, in the assay with KM20L2 colon, the TGI is greater than 100 µM.
With `O=C(NCCCNC(=O)c1ccc2c(O)c(O)ccc2c1)c1ccc2c(O)c(O)ccc2c1`, the TGI was 65.7 µM in the assay on UO-31 renal; greater than 100 µM in the assay on HCC-2998 colon; 56.1 µM in the assay on HS 578T breast; 39.7 µM with KM12 colon; greater than 64.8 µM in the assay with HT29 colon.
Consider `O=c1[nH]cc(COCC(F)(F)C(F)(F)C(F)(F)C(F)F)c(=O)[nH]1`, for which the TGI with UO-31 renal, in the assay on M19-MEL melanoma, with HCC-2998 colon, in the assay with HOP-18 NSCLC, in the assay with DMS 114 small cell lung and in the assay with KM12 colon was greater than 100 µM in each case. Also, the TGI with HT29 colon, with DLD-1 colon, in the assay with LXFL 529 NSCLC and in the assay with KM20L2 colon was greater than 100 µM throughout.
For `CC(=O)Oc1ccccc1-c1cc2ccccc2oc1=O`, the TGI with UO-31 renal, in the assay on HCC-2998 colon, in the assay on HS 578T breast, in the assay on KM12 colon and with HT29 colon was greater than 100 µM each time.
Regarding `N#CC(NNC(=O)Cc1ccccc1)c1ccccc1O` (stereo unspecified), the TGI in the assay on UO-31 renal is 25.4 µM; in the assay on DMS 273 small cell lung it was greater than 100 µM; with M19-MEL melanoma it was 27 µM; in the assay on HCC-2998 colon, 56.1 µM; with HOP-18 NSCLC, 74.9 µM; in the assay with SNB-78 CNS, greater than 100 µM. Besides, the TGI in the assay with HS 578T breast was greater than 100 µM; in the assay with KM12 colon, greater than 100 µM; in the assay on HT29 colon, greater than 92.6 µM; with DLD-1 colon, greater than 100 µM; in the assay on LXFL 529 NSCLC, greater than 100 µM.
As for `O=C(C[n+]1ccccc1)NNC(=O)/C(=C/c1ccc2c(c1)OCO2)NC(=O)c1ccccc1`, the TGI in the assay on UO-31 renal was greater than 100 µM; in the assay with DMS 273 small cell lung, greater than 69.8 µM; with M19-MEL melanoma, greater than 100 µM; with HCC-2998 colon, greater than 100 µM; in the assay on XF 498 CNS it was greater than 83.5 µM; in the assay with HOP-18 NSCLC, greater than 84.7 µM. In addition, the TGI is greater than 100 µM with SNB-78 CNS; 46.4 µM in the assay with DMS 114 small cell lung; greater than 100 µM in the assay with KM12 colon; greater than 100 µM with HT29 colon; greater than 62.2 µM in the assay with DLD-1 colon; greater than 77.2 µM in the assay with LXFL 529 NSCLC. Moreover, the TGI in the assay with KM20L2 colon was greater than 100 µM.
`COc1cc2c(cc1OC)C(O)[C@H](Br)C(C)(C)O2` (stereo partly specified): the TGI in the assay with UO-31 renal, with DMS 273 small cell lung, in the assay with M19-MEL melanoma, with HCC-2998 colon, in the assay with XF 498 CNS and in the assay on HOP-18 NSCLC was greater than 100 µM each time. Further, the TGI in the assay on DMS 114 small cell lung, with KM12 colon, in the assay on HT29 colon, in the assay on DLD-1 colon, with LXFL 529 NSCLC and in the assay with KM20L2 colon was greater than 100 µM in each case.
Consider `CCOC(=O)C1=C(Nc2cccc(OC)c2)OCC1=O`, for which the TGI with UO-31 renal, in the assay on HCC-2998 colon, in the assay with HS 578T breast, in the assay on KM12 colon and in the assay on HT29 colon was greater than 100 µM each time.
Consider `CCN1CCN(c2ccc(Nc3ccnc4ccc5nn(C)nc5c34)cc2)CC1`, for which the TGI in the assay on UO-31 renal came out at 26.7 µM; with M19-MEL melanoma it was 29.8 µM; in the assay on HCC-2998 colon, 26 µM; with XF 498 CNS, 26.9 µM; in the assay on SNB-78 CNS, 33.8 µM; with DMS 114 small cell lung, 22.6 µM. In addition, the TGI stood at 24 µM with KM12 colon; 16.6 µM in the assay on HT29 colon; 23.9 µM with RXF-631 renal; 28.3 µM in the assay with DLD-1 colon; 23.8 µM in the assay with LXFL 529 NSCLC; 27.4 µM with KM20L2 colon.
Take `CCN(CC)c1ccc2cc(-c3nnc(-c4ccccc4)o3)c(=O)oc2c1`: the TGI with UO-31 renal was greater than 100 µM; with HCC-2998 colon, greater than 46.3 µM; with HS 578T breast it was greater than 100 µM; with KM12 colon, greater than 100 µM; with HT29 colon it was greater than 100 µM.
In the case of `COc1ccc2c(c1)CCc1c-2[nH]c2ccc(OC)cc12`, the TGI with UO-31 renal, with HCC-2998 colon, in the assay with HS 578T breast, in the assay on KM12 colon and with HT29 colon was greater than 100 µM throughout.
Regarding `CCN(CC)CCn1nc(N)c2nc3cc(Cl)ccc3nc21`, the TGI in the assay on UO-31 renal, in the assay on HCC-2998 colon, in the assay on HS 578T breast, in the assay on KM12 colon and with HT29 colon was greater than 100 µM in each case.
On to `CC1(C)c2ccccc2C(=O)C12CCC(=O)CC2`, for which the TGI with UO-31 renal, with HCC-2998 colon, in the assay with HS 578T breast, in the assay with KM12 colon and with HT29 colon was greater than 100 µM throughout.
On to `C#CCn1ncc2c(SCc3ccccc3)ncnc21`, for which the TGI in the assay on UO-31 renal, in the assay with HCC-2998 colon, with HS 578T breast, in the assay on KM12 colon and in the assay with HT29 colon was greater than 100 µM throughout.
